Consider 1 compound from patent publication US8492391B2, “Substituted 6-(2-hydroxybenzylamino)purine derivatives, their use as medicaments and compositions containing these derivatives” (Univerzita Palackeho V Olomouci, priority 2009, dated 2013).

Experiment [1] relates to MCF7 (human breast adenocarcinoma). Kind of experiment: Calcein AM cytotoxicity assay, MCF7. It counts as cell-based. The source says: Cytotoxicity of the compounds is the major property determining their anticancer effect in vivo. One of the parameters used, as the basis for cytotoxicity assays, is the metabolic activity of viable cells. For example, a microtiter assay, which uses the Calcein AM, is now widely used to quantitate cell proliferation and cytotoxicity. For instance, this assay is used in drug screening programs and in chemosensitivity testing. Because only metabolically active cells cleave Calcein AM, these assays detect viable cells exclusively. The quantity of cleaved Calcein AM corresponds to the number of vital cells in the culture. We have been using the following cell lines: MCF7 (human breast adenocarcinoma), K562 (human chronic myelogenous leukaemia), HOS (human osteogenic sarcoma), HeLa (human cervical carcinoma), HL 60 (human promyelocytic leukaemia), G 361 (human malignant melanoma), CEM (human lymphoblastoid leukaemia). All cell lines were grown in DMEM medium (Gibco BRL) supplemented with 10% (v/v) fetal bovine serum and L-glutamine and maintained at 37° C. in a humidified atmosphere with 5% CO2. For cytotoxicity assays, 10^4 cells were seeded into each well of 96 well plate, allowed to stabilize for at least 2 h and then tested compounds were added at various concentrations ranging from 100 to 0.1 μM in triplicates. Three days after drug addition Calcein AM solution (Molecular Probes) was added and let to enter the cells for 1 hour. Fluorescence of viable cells was quantified using Fluoroskan Ascent (Microsystems).

Experiment [2] deals with T1, CDK2/cyclin E (Homo sapiens, UniProt P24941).
T1 construct: made in house; host or cells: Sf9 insect cells, baculovirus co-infection
As to the kind of experiment: CDK2/cyclin E kinase inhibition assay. It counts as biochemical. The method, then: Selected compounds were tested for CDK1/cyclin B, CDK2/cyclin E, CDK5/p25, CDK7/cyclin H and CDK9/cyclin T inhibitory activity to determine the basic relationships between their structure and the inhibitory activity. Cdk/cyclin complexes were expressed in Sf9 cells co-infected with appropriate baculoviral construct. The cells were harvested 70 hours post infection in lysis buffer (50 mM Tris pH 7.4, 150 mM NaCl, 5 mM EDTA, 20 mM NaF, 1% Tween 20, protease inhibitors) for 30 min on ice and the soluble fraction was recovered by centrifugation at 14.000 g for […]. The protein extract was stored at −80° C. until use. The final point test system for kinase activity measurement was used to carry out experiments on the kinetics under linear conditions. […] ATP and tested compound in a final volume of 20 μl, all in reaction buffer: 50 mM Hepes pH 7.4, 10 mM MgCl2, 5 mM EGTA, 10 mM 2-glycerolphosphate, 1 mM NaF, 1 mM DTT and protease inhibitors. After 30 min, the incubations were stopped by adding 5% H3PO4 and then the proteins were separated by phosphocellulose binding. The measurement of kinase inhibition employed the digital imaging analyzer BAS 1800. The kinase activity was expressed as a percentage of maximum activity and the IC50 value was determined by graphic analysis. The kinase activity is expressed as a percentage of maximum activity (FIG. 1).

As usually defined, the IC50 is the concentration needed to halve the response being measured. For `CCC(CO)Nc1nc(NCc2cccc(OC)c2O)c2ncn(C(C)C)c2n1` (racemic) [Compound 128, (RS)-2-({6-[(2-hydroxy-3-methoxybenzyl)amino]-9-isopropyl-9-H-purin-2-yl}amino)butan-1-ol], the IC50 in experiment [1] (Homo sapiens, MCF7, read-out: Cytotoxic activity IC50 (μM) MCF7) was 5 µM; in experiment [2] (kinase inhibitory activity, 15 μM ATP, histone substrate), 0.07 µM. For the same compound, the “number of viable cells (antiproliferative activity)” value in experiment [1] (MCF7, 72 h) was “significantly reduces the number of living cells”. Moreover, the “inhibition of kinase activity (FIG. 1)” value in experiment [2] (CDK2/cyclin E) is recorded as “inhibition of the CDK2/cyclin E kinase activity”.
